In the NIST ThermoML archive (doi:10.1016/j.fluid.2014.04.038):
“And” between values parts separate entries of the source, which are not always exact repeats. Equal entries are not always repeated.

Conditions: Gas, Hot wire method

N#N [nitrogen]
Conditions	thermal conductivity
321.58 K, 2776.2 kPa	0.0278 W/m/K
321.95 K, 2778.7 kPa	0.02777 W/m/K
321.99 K, 2778.7 kPa	0.02793 W/m/K
322.25 K, 2776.2 kPa	0.02762 W/m/K
322.29 K, 2776.2 kPa	0.02772 W/m/K
322.61 K, 2776.2 kPa	0.02762 W/m/K
323.16 K, 1008.8 kPa	0.02726 W/m/K
323.18 K, 1008.8 kPa	0.02729 W/m/K
324.06 K, 1008.8 kPa	0.02748 W/m/K
324.12 K, 1008.8 kPa	0.02747 W/m/K
325.1 K, 1008.8 kPa	0.0277 W/m/K and 0.02772 W/m/K
325.44 K, 574.1 kPa	0.02822 W/m/K
326.18 K, 2705.7 kPa	0.02794 W/m/K
326.24 K, 2705.7 kPa	0.02859 W/m/K
326.43 K, 4299.5 kPa	0.02906 W/m/K
326.51 K, 4299.5 kPa	0.02914 W/m/K
326.67 K, 3835.8 kPa	0.02909 W/m/K and 0.02897 W/m/K
326.72 K, 2705.7 kPa	0.02848 W/m/K
326.75 K, 2705.7 kPa	0.02853 W/m/K
327.32 K, 1657.7 kPa	0.02798 W/m/K
327.57 K, 1657.7 kPa	0.02789 W/m/K
327.66 K, 4299.5 kPa	0.0294 W/m/K
327.7 K, 4299.5 kPa	0.02966 W/m/K
327.84 K, 1209.3 kPa	0.02782 W/m/K
327.85 K, 1209.3 kPa	0.02748 W/m/K
327.86 K, 3835.8 kPa	0.0294 W/m/K and 0.02906 W/m/K
328.83 K, 1657.7 kPa	0.02814 W/m/K
328.85 K, 1657.7 kPa	0.02817 W/m/K
329.15 K, 1209.3 kPa	0.02785 W/m/K
329.17 K, 1209.3 kPa	0.02784 W/m/K
330.94 K, 2682.6 kPa	0.02851 W/m/K
330.96 K, 2682.6 kPa	0.0287 W/m/K
332.04 K, 2682.6 kPa	0.02834 W/m/K
332.12 K, 2682.6 kPa	0.02902 W/m/K
335.72 K, 2657.4 kPa	0.02849 W/m/K
335.73 K, 2657.4 kPa	0.02905 W/m/K
336.01 K, 4212.3 kPa	0.02961 W/m/K
336.02 K, 4212.3 kPa	0.02949 W/m/K
336.33 K, 2657.4 kPa	0.02874 W/m/K
336.36 K, 2657.4 kPa	0.02885 W/m/K
337.13 K, 4212.3 kPa	0.03001 W/m/K and 0.0297 W/m/K
340.86 K, 2579.4 kPa	0.02926 W/m/K
340.87 K, 2579.4 kPa	0.02913 W/m/K
341.16 K, 2579.4 kPa	0.02959 W/m/K
341.21 K, 2579.4 kPa	0.02922 W/m/K
